According to patent publication US8168646B2, “3,4-dihydroquinazoline derivatives” (Dongwoo Syntech Co., Ltd., priority 2007, dated 2012):

Legend:
[1] = system: human malignant melanoma (SK-MEL-2); test: Growth inhibition, SRB assay, SK-MEL-2; format: cell-based; conditions: 72 hours, three independent experiments, read-out: Growth inhibition of cancer cell: GI50, SK-MEL-2
Protocol: (§1) T-type calcium channel blocking effects of the compounds of the present invention were tested according to an electrophysiological whole-cell patch-clamp method, which uses mammalian HEK293 cell line selectively expressing α1G among T-type calcium channel encoding genes, wherein the α1G is mainly expressed at nerve cells (derived from […]), as described in Korean Patent No. 0610731 and Monteil, A., et al., J. Biol. Chem. 2000, 275, 6090-6100. Also, cytotoxicities of the compounds according to the present invention were tested according to a 3-(4,5-dimethylthiazol-2-yl)-2,5-diphenyltetrazolium bromide (MTT) assay. Further, growth inhibition effects against cancer cell lines of the compounds according to the present invention were tested according to a sulforhodamine B (SRB) assay, as disclosed in Skehan, P. et al., J. Natl Cancer Inst. 1990, 82, 1107-1112.
(§2) Experiment 3: Analysis for Growth Inhibition Against Cancer Cell Lines Using SRB Assay
(§3) The compounds according to the present invention were evaluated for their growth inhibition against five cancer cell lines, including human lung carcinoma (A-549), human prostate cancer (DU 145), human colon cancer (HT-29), human malignant melanoma (SK-MEL-2) and human ovarian cancer (SK-OV-3) using sulforhodamine B (SRB) assay. All cell lines were grown in RPMI 1640 (Gibco BRL) supplemented with 10% (v/v) heat-inactivated fetal bovine serum (FBS) and maintained at 37° C. in a humidified atmosphere with 5% CO2. The cells were seeded into 96-well plate. Various concentrations of compounds were added to each well in triplicate and then incubated at 37° C. with 5% CO2 for 72 hours such that cells are in the exponential phase of growth at the time of drug addition. After incubation, 100 μL of formalin solution was gently added to the wells. Microplates were left for 30 min at room temperature and washed five times with tap water. One hundred microliters of 0.4% SRB solution was added to each well and left at room temperature for 30 min. SRB was removed and the plates were washed five times with 1% acetic acid before air-drying. Bound SRB was solubilized with 100 μL of 10 mM unbuffered Tris-base solution (Sigma) and plates were left on a plate shaker for at least 10 min. The optical density was measured using a microplate reader (Versamax, Molecular Devices) with a 520 nm wavelength and the growth inhibition concentration was expressed as GI50.

[2] = system: human lung carcinoma (A-549); test: Growth inhibition, SRB assay, A-549; format: cell-based; conditions: A549, 72 hours, three independent experiments, read-out: Growth inhibition of cancer cell: GI50, A-549
Protocol: as §1, §2, §3

[3] = system: human colon cancer (HT-29); test: Growth inhibition, SRB assay, HT-29; format: cell-based; conditions: for GI50: Homo sapiens, HT-29, SRB assay, 72 hours, three independent experiments, read-out: Growth inhibition of cancer cell: GI50, HT-29
Protocol: as §1, §2, §3

[4] = system: human ovarian cancer (SK-OV-3); test: Growth inhibition, SRB assay, SK-OV-3; format: cell-based; conditions: 72 hours, three independent experiments, read-out: Growth inhibition of cancer cell: GI50, SK-OV-3
Protocol: as §1, §2, §3

[5] = system: human prostate cancer (DU 145); test: Growth inhibition, SRB assay, DU 145; format: cell-based; conditions: 72 hours, three independent experiments, read-out: Growth inhibition of cancer cell: GI50, DU 145
Protocol: as §1, §2, §3

[6] = molecular target: T1, T-type calcium channel (α1G) (Homo sapiens, UniProt O43497); test: T-type calcium channel blocking, electrophysiological whole-cell patch-clamp in HEK293 cells expressing α1G; format: cell-based; conditions: dose-response curve, three independent experiments, read-out: Channel blocking effect (IC50) T-type (α1G)
T1 construct: expressed in transfected cells
Protocol: as §1
Experiment 1: Methods for Culturing HEK293 cells and measuring T-type Calcium Channel Activity Using an Electrophysiological Method
HEK293 cells were cultured in Dulbecco's modified Eagle's medium (DMEM) supplemented with 10% fetal bovine serum (FBS) and 1% penicillin/streptomycin (v/v) in 36.5° C. humidified incubator (95% air-5% CO2). […] The cells used for T-type calcium channel activity assay were cultured on a cover slip coated with poly-L-lysine (0.5 mg/mL) whenever sub-cultured, and their calcium channel activity was recorded 2 to 7 days after the cultivation. Current of the T-type calcium channel at a single cell level was measured according to an electrophysiological whole-cell patch-clamp method using EPC-9 amplifier (HEKA, Germany). […] Inward current caused by the T-type calcium channel activation which occurred when the cells were converted into a whole-cell recording mode by stabbing a microglass electrode having 3-4 MΩ resistance which was filled with the cell interior solution into a single cell and de-polarized at −30 mV (50 ms duration period) every 10 s with fixing membrane potential to −100 mV was measured according to a T-type calcium channel protocol activated at low current.

five cancer cell lines = test: Growth inhibition, SRB assay, five cancer cell lines overall; format: cell-based, human
Protocol: as §2
as §3, with “One hundred microliters of 0.4% SRB solution was added to each well and left at room temperature for 30 min. SRB was removed and the plates were washed five times with 1% acetic acid before air-drying. Bound SRB was solubilized with 100 μL of 10 mM unbuffered Tris-base solution (Sigma) and plates were left on a plate shaker for at least 10 min.” left out
The biological activities of doxorubicin and KYS05042 disclosed in Korean Patent No. 0610731 were evaluated as references, and the results are indicated in Table 2.

T1 sequence (O43497 whole entry): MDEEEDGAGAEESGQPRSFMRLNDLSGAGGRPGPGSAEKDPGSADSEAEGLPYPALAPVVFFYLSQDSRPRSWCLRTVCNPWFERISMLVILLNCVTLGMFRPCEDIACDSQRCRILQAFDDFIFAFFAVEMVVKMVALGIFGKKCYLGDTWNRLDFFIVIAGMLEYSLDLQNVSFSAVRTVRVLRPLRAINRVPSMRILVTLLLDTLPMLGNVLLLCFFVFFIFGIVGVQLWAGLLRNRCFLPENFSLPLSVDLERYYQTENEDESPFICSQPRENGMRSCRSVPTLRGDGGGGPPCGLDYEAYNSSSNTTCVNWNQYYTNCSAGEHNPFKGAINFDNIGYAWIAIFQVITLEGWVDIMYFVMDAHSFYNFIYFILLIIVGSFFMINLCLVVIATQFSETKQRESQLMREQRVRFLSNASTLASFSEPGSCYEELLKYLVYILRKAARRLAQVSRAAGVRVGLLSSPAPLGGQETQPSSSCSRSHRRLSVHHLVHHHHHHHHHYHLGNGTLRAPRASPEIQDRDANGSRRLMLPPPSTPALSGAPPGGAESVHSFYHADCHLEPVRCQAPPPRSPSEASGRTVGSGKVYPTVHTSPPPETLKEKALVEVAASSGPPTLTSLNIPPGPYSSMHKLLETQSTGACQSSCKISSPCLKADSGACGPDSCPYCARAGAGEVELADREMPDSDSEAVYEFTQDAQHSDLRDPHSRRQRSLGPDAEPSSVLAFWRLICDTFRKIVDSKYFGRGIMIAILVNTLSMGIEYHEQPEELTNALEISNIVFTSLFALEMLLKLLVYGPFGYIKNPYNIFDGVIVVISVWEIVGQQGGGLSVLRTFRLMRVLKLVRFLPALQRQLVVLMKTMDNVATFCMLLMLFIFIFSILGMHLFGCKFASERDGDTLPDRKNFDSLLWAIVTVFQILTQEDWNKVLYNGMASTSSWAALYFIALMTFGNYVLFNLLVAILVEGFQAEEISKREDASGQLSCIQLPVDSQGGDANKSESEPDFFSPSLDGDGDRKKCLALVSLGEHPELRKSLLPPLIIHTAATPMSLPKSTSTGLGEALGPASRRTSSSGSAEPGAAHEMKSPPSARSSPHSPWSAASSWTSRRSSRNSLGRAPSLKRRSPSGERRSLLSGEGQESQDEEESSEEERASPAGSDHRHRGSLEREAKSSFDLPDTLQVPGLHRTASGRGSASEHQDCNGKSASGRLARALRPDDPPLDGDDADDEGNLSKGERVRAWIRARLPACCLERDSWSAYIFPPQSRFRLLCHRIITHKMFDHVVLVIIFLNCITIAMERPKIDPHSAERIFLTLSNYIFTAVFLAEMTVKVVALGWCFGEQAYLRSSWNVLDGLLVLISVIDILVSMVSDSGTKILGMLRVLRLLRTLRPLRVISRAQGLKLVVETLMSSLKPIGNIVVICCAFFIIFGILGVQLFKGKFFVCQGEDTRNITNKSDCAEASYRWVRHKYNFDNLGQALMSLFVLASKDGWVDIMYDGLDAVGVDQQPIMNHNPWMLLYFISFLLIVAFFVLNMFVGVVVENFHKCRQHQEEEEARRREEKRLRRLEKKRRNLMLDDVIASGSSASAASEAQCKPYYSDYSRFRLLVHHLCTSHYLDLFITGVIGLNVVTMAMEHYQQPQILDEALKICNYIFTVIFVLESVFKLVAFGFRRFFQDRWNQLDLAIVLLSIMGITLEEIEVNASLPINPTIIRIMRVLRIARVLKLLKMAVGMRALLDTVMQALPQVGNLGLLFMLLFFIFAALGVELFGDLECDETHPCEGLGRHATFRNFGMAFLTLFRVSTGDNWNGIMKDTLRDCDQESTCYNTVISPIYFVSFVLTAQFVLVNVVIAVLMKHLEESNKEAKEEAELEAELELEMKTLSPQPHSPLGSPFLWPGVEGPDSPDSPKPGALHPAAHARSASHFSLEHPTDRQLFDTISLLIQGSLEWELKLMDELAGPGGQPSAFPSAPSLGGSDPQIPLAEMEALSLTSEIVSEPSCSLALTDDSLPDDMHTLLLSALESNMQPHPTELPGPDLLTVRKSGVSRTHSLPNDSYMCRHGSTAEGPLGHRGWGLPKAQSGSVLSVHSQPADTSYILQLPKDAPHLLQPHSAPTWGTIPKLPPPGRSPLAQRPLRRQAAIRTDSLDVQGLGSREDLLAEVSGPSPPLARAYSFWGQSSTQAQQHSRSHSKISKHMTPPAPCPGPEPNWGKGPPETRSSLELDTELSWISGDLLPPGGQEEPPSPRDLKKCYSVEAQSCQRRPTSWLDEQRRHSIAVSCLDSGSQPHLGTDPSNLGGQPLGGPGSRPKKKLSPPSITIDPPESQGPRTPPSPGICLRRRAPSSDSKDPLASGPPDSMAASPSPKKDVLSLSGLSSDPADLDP

COc1cccc2c1C(=O)c1c(O)c3c(c(O)c1C2=O)C[C@@](O)(C(=O)CO)C[C@@H]3O[C@H]1C[C@H](N)[C@H](O)[C@H](C)O1 [Doxorubicin, doxorubicin, reference compound]
GI50 [1]: 110 ± 10 nM | GI50 [2]: 160 ± 10 nM | GI50 [3]: 210 ± 40 nM | GI50 [4]: 120 ± 20 nM | GI50 [5]: 60 ± 10 nM

CN(C)CCCCCN(C)C1=Nc2ccccc2C(CC(=O)NCc2ccccc2)N1c1ccc(-c2ccccc2)cc1 (stereo not drawn) [KYS05090, 4-(N-Benzylacetamino)-3-(4-Biphenylyl)-2-[N-(5-N′,N′-Dimethylaminopentyl)-N-Methylamino]-3,4-Dihydroquinazoline]
GI50 [1]: 480 ± 130 nM | IC50 [6]: 41 ± 1 nM | GI50 [2]: 170 ± 20 nM | GI50 [3]: 40 ± 10 nM | Times stronger activity against human colon cancer cell line compared to KYS05042 ([3]; human colon cancer cell line, compared to KYS05042): about 40 times | Times stronger activity against human colon cancer cell line compared to doxorubicin ([3]; human colon cancer cell line, compared to doxorubicin): about 5 times | Times stronger growth inhibition compared to KYS05042 (five cancer cell lines; compared to KYS05042): about 10 times | Growth inhibition compared to doxorubicin (five cancer cell lines; compared to doxorubicin): nearly equipotent growth inhibition | GI50 [4]: 660 ± 130 nM | GI50 [5]: 190 ± 20 nM

CN(CCCCCN1CCCC1)C1=Nc2ccccc2C(CC(=O)NCc2ccccc2)N1c1ccc(-c2ccccc2)cc1 (stereo not drawn) [KYS05080]
GI50 [1]: 690 ± 150 nM | IC50 [6]: 260 ± 10 nM | GI50 [2]: 870 ± 180 nM | GI50 [3]: 610 ± 120 nM | GI50 [4]: 2760 ± 760 nM | GI50 [5]: 2490 ± 530 nM

COC(=O)CC1c2ccccc2N=C(N(C)CCCCCN(C)C)N1c1ccc(-c2ccccc2)cc1 (stereo not drawn) [KYS05089, 2-[N-(5-N′,N′-Dimethylaminopentyl)-N-Methylamino]-3-(4-Biphenylyl)-4-Methoxycarbonylmethyl-3,4-Dihydroquinazoline]
GI50 [1]: 1910 ± 110 nM | IC50 [6]: 230 ± 30 nM | GI50 [2]: 1770 ± 160 nM | GI50 [3]: 520 ± 240 nM | GI50 [4]: 1950 ± 40 nM | GI50 [5]: 1780 ± 170 nM
